Measurements as given in US12410195B2, “Pharmaceutical compositions comprising 4-((6bR,10aS)-3-methyl-2,3,6b,9,10,10a-hexahydro-1H-pyrido[3′,4′:4,5]pyrrolo[1,2,3-de]quinoxalin-8(7H)-yl)-1-(4-((6bR,10aS)-3-methyl-2,3,6b,9,10,10a-hexahydro-1H-pyrido[3′,4′:4,5]pyrrolo[1,2,3-de]quinoxalin-8(7H)-yl)phenyl)butan-1-one for treating conditions …” (INTRA-CELLULAR THERAPIES, INC., priority 2019, dated 2025).

Assays:
SERT = SERT (Homo sapiens, UniProt P31645); assay: Radioligand receptor binding, SERT (antagonist binding); details: radioligand imipramine
SERT, sequence (P31645 whole entry): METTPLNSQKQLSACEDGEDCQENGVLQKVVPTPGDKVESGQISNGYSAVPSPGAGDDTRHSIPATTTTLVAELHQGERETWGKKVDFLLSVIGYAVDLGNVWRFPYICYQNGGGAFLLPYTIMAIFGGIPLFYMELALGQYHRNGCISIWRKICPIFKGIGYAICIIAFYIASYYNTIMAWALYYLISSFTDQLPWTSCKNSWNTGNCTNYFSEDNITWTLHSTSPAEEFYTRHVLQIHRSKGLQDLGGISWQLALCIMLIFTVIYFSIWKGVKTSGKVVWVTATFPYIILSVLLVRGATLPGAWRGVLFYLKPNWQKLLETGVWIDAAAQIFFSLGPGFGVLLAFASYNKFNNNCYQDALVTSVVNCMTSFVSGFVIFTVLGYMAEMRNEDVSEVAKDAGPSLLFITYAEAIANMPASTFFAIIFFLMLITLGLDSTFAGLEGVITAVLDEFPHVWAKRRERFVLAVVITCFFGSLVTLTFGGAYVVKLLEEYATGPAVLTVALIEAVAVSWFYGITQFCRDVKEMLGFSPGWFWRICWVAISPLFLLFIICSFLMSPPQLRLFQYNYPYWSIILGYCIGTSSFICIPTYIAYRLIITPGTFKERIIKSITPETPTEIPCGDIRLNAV
Procedure: (§1) Receptor binding is determined for the Compounds of Example 1. The following literature procedures are used, each of which reference is incorporated herein by reference in their entireties: 5-HT2A: Bryant, H. U. et al. (1996), Life Sci., 15:1259-1268; D2: Hall, D. A. and Strange, P. G. (1997), Brit. J. Pharmacol., 121:731-736; D1: Zhou, Q. Y. et al. (1990), Nature, 347:76-80; SERT: Park, Y. M. et al. (1999), Anal. Biochem., 269:94-104; Mu opiate receptor: Wang, J. B. et al. (1994), FEBS Lett., 338:217-222.
(§2) The compound of Example 1 is tested at a concentration of […] in DMSO solution. Compound binding is calculated as the percent inhibition of the binding of a radioactively labeled ligand specific for each target. The control ligands are radiolabeled forms of SCH 23390 (for D1), 7-hydroxy-DPAT (for D2S), racemic DOI (for 5-HT2A and 5-HT2B), veratridine (for sodium channel site 2), protriptyline (for NET) and imipramine (for SERT).
(§3) In general, the results are expressed as a percent of control specific binding:
(§4) [formula] and as a percent inhibition of control specific binding:
(§5) [formula] obtained in the presence of the test compound (compound of Example 1).
(§6) Further pharmacology studies are conducted to determine IC50 values for receptor binding to the 5-HT2A receptor, D1 receptor, and SERT. For each study, the compound of Example 1 is tested at a range of concentrations and compound binding at each concentration is calculated as the percent inhibition of the binding of a radioactively labeled ligand specific for the target. The control ligands are radiolabeled forms of […], racemic DOI (for 5-HT2A), and imipramine (for SERT). The IC50 value is determined by non-linear regression analysis of the competition curve generated with mean replicate values using Hill Equation curve fitting:
(§7) [formula] wherein Y is specific binding, A is the left asymptote of the curve, D is the right asymptote of the curve, C is the compound concentration, and nH is the slope factor. Ki values are calculated using the Cheng Prusoff equation: […]

5-HT2A receptor = 5-HT2A receptor (Homo sapiens, UniProt P28223); assay: Radioligand receptor binding, 5-HT2A (agonist binding); details: radioligand racemic DOI
5-HT2A receptor, sequence (P28223 whole entry): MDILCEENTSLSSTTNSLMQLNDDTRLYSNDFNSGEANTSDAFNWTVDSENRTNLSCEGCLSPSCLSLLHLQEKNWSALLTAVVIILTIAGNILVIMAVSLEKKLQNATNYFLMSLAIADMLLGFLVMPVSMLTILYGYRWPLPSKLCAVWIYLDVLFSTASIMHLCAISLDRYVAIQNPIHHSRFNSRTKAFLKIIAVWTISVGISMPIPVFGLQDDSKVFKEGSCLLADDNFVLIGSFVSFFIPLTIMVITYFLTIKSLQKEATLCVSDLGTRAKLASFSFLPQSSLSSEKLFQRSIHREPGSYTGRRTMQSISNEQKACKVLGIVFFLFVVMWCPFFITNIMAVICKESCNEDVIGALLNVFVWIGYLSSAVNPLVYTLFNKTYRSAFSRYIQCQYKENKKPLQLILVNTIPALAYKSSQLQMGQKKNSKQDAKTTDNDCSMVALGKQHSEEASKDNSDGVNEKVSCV
Procedure: as §1, §2, §3, §4, §5, §6, §7

5-HT2B = 5-HT2B (Homo sapiens, UniProt P41595); assay: Radioligand receptor binding, 5-HT2B (agonist binding); design: dose or concentration left out as unconfirmed; details: in DMSO solution; radioligand racemic DOI
5-HT2B, sequence (P41595 whole entry): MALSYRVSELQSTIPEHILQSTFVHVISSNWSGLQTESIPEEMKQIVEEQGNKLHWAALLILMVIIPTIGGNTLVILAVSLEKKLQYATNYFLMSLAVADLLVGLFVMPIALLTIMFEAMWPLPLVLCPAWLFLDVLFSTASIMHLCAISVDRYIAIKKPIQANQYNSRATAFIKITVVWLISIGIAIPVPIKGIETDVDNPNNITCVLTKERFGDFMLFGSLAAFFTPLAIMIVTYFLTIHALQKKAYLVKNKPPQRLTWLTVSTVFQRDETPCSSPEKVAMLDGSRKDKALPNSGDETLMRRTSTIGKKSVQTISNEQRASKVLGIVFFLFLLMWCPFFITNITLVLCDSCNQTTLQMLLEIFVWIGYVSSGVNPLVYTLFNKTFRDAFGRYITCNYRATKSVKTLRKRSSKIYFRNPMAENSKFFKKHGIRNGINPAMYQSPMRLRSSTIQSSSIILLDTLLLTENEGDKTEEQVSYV
Procedure: as §1, §2, §3, §4, §5

D2S = D2S (Homo sapiens, UniProt P14416); assay: Radioligand receptor binding, D2S (agonist binding); details: radioligand 7-hydroxy-DPAT
D2S, sequence (P14416 1-414 isoform P14416-2): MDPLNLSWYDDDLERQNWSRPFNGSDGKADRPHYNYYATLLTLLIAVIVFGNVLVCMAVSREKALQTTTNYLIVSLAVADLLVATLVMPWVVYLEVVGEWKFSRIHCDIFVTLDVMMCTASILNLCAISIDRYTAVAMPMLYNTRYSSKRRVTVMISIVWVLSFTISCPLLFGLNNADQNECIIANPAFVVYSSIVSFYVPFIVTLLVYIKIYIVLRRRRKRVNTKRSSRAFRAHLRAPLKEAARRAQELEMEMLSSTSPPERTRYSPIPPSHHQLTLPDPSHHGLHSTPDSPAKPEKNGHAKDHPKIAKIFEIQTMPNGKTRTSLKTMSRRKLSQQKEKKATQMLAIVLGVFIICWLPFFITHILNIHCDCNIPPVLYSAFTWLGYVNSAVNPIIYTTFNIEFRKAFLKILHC
Procedure: as §1, §2, §3, §4, §5, §6, §7

D1 = D1 (Homo sapiens, UniProt P21728); assay: Radioligand receptor binding, D1 (antagonist binding); design: dose or concentration left out as unconfirmed; details: in DMSO solution; radioligand SCH 23390
D1, sequence (P21728 whole entry): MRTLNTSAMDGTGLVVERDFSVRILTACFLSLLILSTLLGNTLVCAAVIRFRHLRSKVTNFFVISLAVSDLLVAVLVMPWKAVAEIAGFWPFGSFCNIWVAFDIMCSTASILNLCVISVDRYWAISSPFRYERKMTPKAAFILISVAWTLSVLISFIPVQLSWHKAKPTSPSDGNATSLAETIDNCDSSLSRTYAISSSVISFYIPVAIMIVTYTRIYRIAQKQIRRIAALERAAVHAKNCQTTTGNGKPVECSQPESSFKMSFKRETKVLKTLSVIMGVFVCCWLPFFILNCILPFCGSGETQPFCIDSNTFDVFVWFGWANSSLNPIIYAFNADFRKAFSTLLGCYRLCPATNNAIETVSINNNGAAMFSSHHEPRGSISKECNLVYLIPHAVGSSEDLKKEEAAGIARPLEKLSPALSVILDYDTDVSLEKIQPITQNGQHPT
Procedure: as §1, §2, §3, §4, §5

Sodium channel (site 2) = assay: Radioligand binding, sodium channel site 2 (antagonist binding); details: tested at 1.01.1M in DMSO solution; radioligand veratridine
Procedure: as §2, §3, §4, §5

NET = NET (Homo sapiens, UniProt P23975); assay: Radioligand binding, NET (antagonist binding); design: dose or concentration left out as unconfirmed; details: tested in DMSO solution; radioligand protriptyline
NET, sequence (P23975 whole entry): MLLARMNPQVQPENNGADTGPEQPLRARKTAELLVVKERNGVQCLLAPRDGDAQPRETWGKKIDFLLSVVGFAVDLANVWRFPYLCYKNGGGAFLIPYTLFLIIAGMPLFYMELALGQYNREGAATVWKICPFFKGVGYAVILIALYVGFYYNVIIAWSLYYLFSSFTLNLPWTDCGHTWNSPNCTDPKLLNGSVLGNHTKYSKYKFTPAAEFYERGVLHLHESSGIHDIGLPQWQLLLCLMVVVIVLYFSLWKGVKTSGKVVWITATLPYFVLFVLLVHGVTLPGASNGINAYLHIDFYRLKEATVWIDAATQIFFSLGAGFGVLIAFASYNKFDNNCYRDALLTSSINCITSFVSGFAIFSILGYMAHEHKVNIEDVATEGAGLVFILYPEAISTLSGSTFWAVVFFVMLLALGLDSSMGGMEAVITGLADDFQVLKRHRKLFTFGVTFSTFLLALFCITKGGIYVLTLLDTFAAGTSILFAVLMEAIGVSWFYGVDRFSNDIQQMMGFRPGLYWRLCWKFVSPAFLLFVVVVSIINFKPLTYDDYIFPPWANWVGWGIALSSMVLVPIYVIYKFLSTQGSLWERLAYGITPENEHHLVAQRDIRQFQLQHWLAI
Procedure: as §2, §3, §4, §5

[1] = system: symptoms of emotional experience (negative symptoms of schizophrenia); assay: Clinical studies in patients with acute exacerbated schizophrenia; type: in vivo, human; details: once daily 60 mg P.O., up to 28 days, two clinical studies
Text: Social avoidance can be a critical and debilitating symptom in patients suffering from anxiety disorders, especially social anxiety disorder, as well as in patients suffering from traumatic anxiety disorders. Social avoidance is often one of the key determinants of whether a person with a severe anxiety disorder is capable of maintaining familial relationships or employment relationships. […] Negative symptoms of schizophrenia can be divided into two categories: emotional experience (e.g., emotional withdrawal, passive social withdrawal, active social avoidance) and emotional expression (e.g., blunted effect, poor rapport, lack of spontaneity, and motor retardation). […] These are the symptoms that are most highly correlated with interpersonal functioning.

[2] = tested at 1.01.1M in DMSO solution

| SMILES | Ki (SERT; Cheng Prusoff equation) | IC50 (SERT; Hill equation curve fitting) | % inhibition of control specific binding, SERT (antagonist binding) (SERT; [2]) | Ki (5-HT2A receptor; Cheng Prusoff equation) | IC50 (5-HT2A receptor; Hill equation curve fitting) | % inhibition of control specific binding, 5-HT2A (agonist binding) (5-HT2A receptor; [2]) | % inhibition of control specific binding, 5-HT2B (agonist binding) (5-HT2B) | Ki (D2S; Cheng Prusoff equation) | IC50 (D2S; Hill equation curve fitting) | % inhibition of control specific binding, D2S (agonist binding) (D2S; [2]) | % inhibition of control specific binding, D1 (antagonist binding) (D1) | % inhibition of control specific binding, Sodium channel (site 2 antagonist binding) (Sodium channel (site 2)) | % inhibition of control specific binding, NET (antagonist binding) (NET) | symptoms of emotional experience compared to placebo [1] |
| --- | --- | --- | --- | --- | --- | --- | --- | --- | --- | --- | --- | --- | --- | --- |
| CN1CCN2c3c(cccc31)[C@@H]1CN(CCCC(=O)c3ccc(N4CC[C@H]5[C@@H](C4)c4cccc6c4N5CCN6C)cc3)CC[C@@H]12 [Compound 1, 4-((6bR,10aS)-3-methyl-2,3,6b,9,10,10a-hexahydro-1H-pyrido[3′,4′: 4,5]pyrrolo[1,2,3-de]quinoxalin-8(7H)-yl)-1(4-((6bR,10aS)-3-methyl-2,3,6b,9,10,10a-hexahydro-1H-pyrido[3′,4′: 4,5]pyrrolo[1,2,3-de]quinoxalin-8(7H)-yl)phenyl)butan-1-one] | 1.3 nM | 2.9 nM | 99.9% | 51 nM | 68 nM | 90.8% | 87.0% | 72 nM | 180 nM | 80.63% | 52.3% | 87.0% | 82.9% |  |
| CN1CCN2c3c(cccc31)[C@@H]1CN(CCCC(=O)c3ccc(F)cc3)CC[C@@H]12 [lumateperone, 4-((6bR,10aS)-3-methyl-2,3,6b,9,10,10a-hexahydro-1H-pyrido[3′,4′: 4,5]pyrrolo[1,2,3-de]quinoxalin-8(7H)-yl)-1-(4-fluorophenyl)-1-butanone] |  |  |  |  |  |  |  |  |  |  |  |  |  | significant and unexpected improvement |
